Laboratory results from BindingDB's records for doi:10.1021/acs.jnatprod.5b00508 (Korea University, 2015).

Tests used:
[1] = Inhibition of amyloid beta (25 to 35 residues) (unknown origin) aggregate-induced toxicity in rat PC12 cells preincubated for 1 hr followed by amyloid beta challenge measured after 24 hrs by MTT assay
[2] = Inhibition of amyloid beta (1 to 42 residues) (unknown origin) aggregate-induced toxicity in rat PC12 cells assessed as cell viability at 4 to 100 ug/ml pre-incubated for 24 hrs with Abeta ( 1 to 42) followed by compound-Abeta (1 to 42) mixture addition to cells and measured after 24 hrs by MTT assay

Structure (SMILES) | EC50 [1] [µM] | EC50 [2] [µM]
CC(=O)O[C@H]1CC(=O)OC(C)(C)[C@@H]2CC[C@]3(C)[C@H](CC=C(C)[C@@]34C[C@]3(OC(C)=C(C)C3=O)C(=O)O4)[C@@]12C | 113 | –
C[C@@H]1C[C@@]23C[C@H]4C(C)(C)[C@@]5(C[C@]4(CN2C1=O)NC3=O)C(=O)Nc1c5ccc2c1C=CC(C)(C)O2 | > 300 | 97.9
CC1=CC[C@@H]2[C@@]3(C)[C@@H](O)CC(=O)OC(C)(C)[C@@H]3CC[C@@]2(C)[C@]12Cc1c(c(C)c(C)oc1=O)O2 | > 300 | –
CC1=CC[C@@H]2[C@@]3(C)C=CC(=O)OC(C)(C)[C@@H]3CC[C@@]2(C)[C@]12Cc1c(c(C)c(C)oc1=O)O2 | 65.4 | –
CN1C(=O)[C@@]23CCC(=O)N2C[C@@]12C[C@@]1(C(=O)Nc4c1ccc1c4C=CC(C)(C)O1)C(C)(C)[C@@H]2C3 | 150 | 89.9
CC1(C)C=Cc2cc(C(=O)O)ccc2O1 | 252 | –
C[C@H]1CN2C[C@]34C[C@@]5(C(=O)Nc6c5ccc5c6OC=CC(C)(C)O5)C(C)(C)[C@@H]3C[C@@]2(C1)C(=O)N4C | > 300 | 105
C[C@H]1CN2C[C@]34C[C@@]5(C(=O)Nc6c5ccc5c6C=CC(C)(C)O5)C(C)(C)[C@@H]3C[C@@]2(C1)C(=O)N4C | > 300 | –
C[C@@H]1C[C@@]23C[C@H]4C(C)(C)[C@@]5(C[C@]4(CN2C1=O)N(C)C3=O)C(=O)Nc1c5ccc2c1C=CC(C)(C)O2 | > 300 | –
C[C@@H]1C[C@@]23C[C@H]4C(C)(C)[C@@]5(C[C@]4(CN2C1=O)NC3=O)C(=O)Nc1c5ccc2c1OC=CC(C)(C)O2 | > 300 | –
O=C(/C=C/c1ccc(O)c(O)c1)O[C@H](Cc1ccc(O)c(O)c1)C(=O)O [Rosmarinic acid, 2] | 68.1 | 57.2
